Assay results from patent US20110301079A1, “NEUROMEDIN U RECEPTOR AGONISTS AND USES THEREOF” (Instituto di Ricerche di Biologia Molecolare P. Angeletti …, priority 2007, published 2011).

What was measured:
[1] = tested on: wild-type, Nmur1 knockout, Nmur2 knockout and Nmur1/Nmur2 double knockout mice; test: Acute feeding study in wild-type and Nmur knockout mice; format: in vivo
Procedure: Ad libitum fed male diet-induced obese mice obtained from Taconic Farms were weighed and dosed either i.p. or s.c. with NMS or NMU at about 30 minutes prior to the onset of the dark phase of the light cycle and provided with a pre-weighed aliquot of high fat diet (D12492: 60% kcal from fat: Research Diets, Inc.), which was then weighed two and 18 hours after the onset of the initial dark phase. Mice were weighed at the 18 hour (overnight) time point.
NMUR1 knockout (Nmur1−/−) mice were generated using standard homologous recombination techniques. Nmur1 mice were subsequently transferred to Taconic Farms where they were either maintained on a 75% C57BL/6×25% 129S6/SvEv mixed genetic background or backcrossed 6 generations to C57BL/6. NMUR2 knockout (Nmur2−/−) mice were licensed from Deltagen Inc., San Mateo, Calif. and subsequently transferred to Taconic Farms were they were either maintained on a 75% C57BL/6×25% 129/OlaHsd mixed genetic background or backcrossed for 7 generations to C57BL/6. NMUR1 and NMUR2 double knockout (Nmur1&2−/−) mice were generated by crossing N6 Nmur1−/− mice to N7 Nmur2−/− mice. Mice were individually housed in Tecniplast cages in a conventional SPF facility. Mice were initially maintained on a regular chow diet and then early in their life were switched to a high fat diet (D12492) with ad libitum access to water in a 12-h light/12-h dark cycle.
The anorectic effects of NMS1 were mediated by both the NMUR1 and NMUR2 receptors. […] Effects on food intake (FIG. 9A) and body weight (FIG. 9B) are shown.

[2] = target: T1, dog NMUR2 (Canis lupus familiaris, UniProt A0A8I3MN59); test: FLIPR calcium mobilization assay, dog NMUR2 cell line; format: cell-based
T1 construct: expressed in transfected cells
Text: (§1) Human, mouse or rat cDNAs encoding NMUR1 or NMUR2 (as described in Howard et al. Nature 406: 70-74 (2000) were subcloned in pcDNA5 (Invitrogen) and transfected into FLP-In CHO cells and HEK-293 FLP-In cells purchased from Invitrogen (Carlsbad, Calif.) using lipofectamine (Invitrogen). The Flp-In system allows integration and expression of a particular gene of interest at a specific genomic location utilizing the Flp recombinase from yeast. The transfected cells were selected by growth in medium containing 200 μg/mL hygromycin (Invitrogen). Populations were frozen at early passage numbers, and these stocks were used for further studies. Stable clones that expressed the mRNAs were identified functionally by FLIPR as well as by RT-PCR. […] Two different rodent NMUR1 cell lines were thus generated: one with the codon as predicted from the genomic databases and another cell line with an engineered methionine (ATG) as the start codon. The dog NMU receptors were also cloned from intestine RNA (NMUR1) and brain (NMUR2) and stable cell lines were generated as used for the human and rodent cell lines. […] To ensure high levels of expression in a heterologous system, a dog NMUR1 cell line was generated that contains an ATG as the start codon. Additionally, stable cell lines expressing the human receptors were generated in HEK-293/aeq 17 cells which stably express the aequorin gene under the CMV promoter. The human NMUR2 cDNA was cloned into pcDNA3.1 and human NMUR1 was subcloned into pIRES-puro (Clontech, Mountain View, Calif.), after transfection cells were selected in media containing G418 and either hygromycin (NMUR2) or puromycin (NMUR1).
(§2) The NMU receptors signal primarily through Gαq/11 proteins; therefore calcium mobilization assays can be utilized for functional activity.
(§3) Stable cell lines expressing human and or rodent NMUR1 or human NMUR2 receptors are plated at a density of 12,000 cells per well overnight on poly-lysine coated 384-well black-walled plates. The following day, the media is removed from the plates and the cells were subsequently loaded with Fluo-3 (Molecular Probes), a calcium sensitive dye, diluted in FLIPR buffer (1× Hank's buffered saline containing 20 mM HEPES, 0.1% BSA, 2.5 mM probenecid (Sigma) and 1.6 mM TR40). All reagents are from Invitrogen unless otherwise noted. Peptide stocks are resuspended in DMSO at a stock concentration of 2 mM and diluted in FLIPR buffer on the day of the experiment to a 4 μM working stock solution.
(§4) After a 90 minute incubation at room-temperature, cell plates are loaded onto a FLIPR (Molecular Devices) to monitor cellular fluorescence (excitation=488 nm; emission=540 nm) before and after compound/peptide addition. Eight to twelve point dose responses are tested on NMUR-expressing cell lines using FLIPR with 1 μM peptide as the highest dose. The response after peptide addition is taken as the maximum fluorescence units minus the fluorescence immediately prior to stimulation for each well. EC50 values are calculated using GraphPad Prism (San Diego, Calif.) software.
(§5) Percent activity refers to the maximum response at 1 μM compared to the human NMU-25 response at the same concentration.

[3] = target: T2, human NMUR1 (Homo sapiens, UniProt Q9HB89); test: FLIPR calcium mobilization assay, human NMUR1-expressing cell line; format: cell-based
T2 construct: expressed in transfected cells; host or cells: FLP-In CHO cells and HEK-293 FLP-In cells (pcDNA5)
T2 sequence (Q9HB89 1-426): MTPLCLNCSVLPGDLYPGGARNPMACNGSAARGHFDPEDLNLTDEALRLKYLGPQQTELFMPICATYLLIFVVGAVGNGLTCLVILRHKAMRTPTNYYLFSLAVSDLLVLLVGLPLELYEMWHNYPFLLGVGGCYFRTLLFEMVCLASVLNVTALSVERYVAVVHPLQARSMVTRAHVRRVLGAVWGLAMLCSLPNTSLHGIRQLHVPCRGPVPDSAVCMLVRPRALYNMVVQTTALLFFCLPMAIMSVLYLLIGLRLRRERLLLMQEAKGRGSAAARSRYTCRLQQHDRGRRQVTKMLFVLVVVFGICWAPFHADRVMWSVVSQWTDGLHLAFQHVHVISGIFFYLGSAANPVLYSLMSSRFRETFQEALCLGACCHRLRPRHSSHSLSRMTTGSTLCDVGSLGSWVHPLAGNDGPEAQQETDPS
Text: as §1, §2, §3, §4, §5

T1 sequence (A0A8I3MN59 1-378): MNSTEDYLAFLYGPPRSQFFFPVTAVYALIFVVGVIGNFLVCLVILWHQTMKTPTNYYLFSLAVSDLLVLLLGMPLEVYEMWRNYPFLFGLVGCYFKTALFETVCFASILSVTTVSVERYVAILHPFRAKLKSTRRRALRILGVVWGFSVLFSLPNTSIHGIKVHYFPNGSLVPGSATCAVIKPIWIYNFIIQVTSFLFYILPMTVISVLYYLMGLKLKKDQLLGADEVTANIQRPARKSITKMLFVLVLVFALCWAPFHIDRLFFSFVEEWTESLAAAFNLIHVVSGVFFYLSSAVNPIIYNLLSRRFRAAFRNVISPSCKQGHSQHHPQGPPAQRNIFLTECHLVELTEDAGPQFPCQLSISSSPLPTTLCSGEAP

EC50 ([2]; dog NMUR2, FLIPR): 1 nM
% Activity ([2]; dog NMUR2, maximum response at 1 μM compared to the human NMU-25 response at the same concentration): 104%
EC50 ([3]; human NMUR1, FLIPR): 6.7 nM
% Activity ([3]; human NMUR1, maximum response at 1 μM compared to the human NMU-25 response at the same concentration): 97%
Substance: H-ILQRGSGTAAVDFTKKDHTATWGRPFFLFRPRN-NH2 [NMS, reference compound]
food intake ([1]; Nmur1 knockout mice, highest dose tested): modest but significant effect
food intake ([1]; acute peripheral administration, Nmur1 knockout mice): not in Nmur1 knockout mice
food intake ([1]; acute peripheral administration, Nmur2 knockout mice): significantly reduced
food intake ([1]; acute peripheral administration, wild-type mice): significantly reduced
